Measurements published in patent US20240148821A1, “PHARMACEUTICAL USE OF CYCLIC PEPTIDE COMPOUND” (CHUGAI SEIYAKU KABUSHIKI KAISHA, priority 2021, published 2024).
Numbered stars: 1 amine (or outer) side, 2 acyl side, 3 side chain; on linkers, the order of the positions; unused ones are H or OH. Bridge positions count the residues as written; N and C are the ends. Square brackets hold non-standard residues; d marks the D form. Peptide text beside a SMILES is read from it. * marks the point of attachment. hPhe(3,5-F2-4-CF3) = N[C@@H](CCc1cc(F)c(C(F)(F)F)c(F)c1)C(=O)O; hPhe(3-Cl-4-CF3) = N[C@@H](CCc1ccc(C(F)(F)F)c(Cl)c1)C(=O)O; NMePhe(4-CF3) = CN[C@@H](Cc1ccc(C(F)(F)F)cc1)C(=O)O; 3Oxa8azabicyclo(3.2.1)octane = C1CC2COCC1N2*; NMedβ3hAla = C[C@H](CC(=O)[*:2])N(C)[*:1]; NMeGly(cPent) = CN[C@H](C(=O)O)C1CCCC1; NMeCha = CN[C@@H](CC1CCCCC1)C(=O)O; Hyp = O=C(O)[C@@H]1C[C@@H](O)CN1; NEtLeu = CCN[C@@H](CC(C)C)C(=O)O; NMeChg = CN[C@H](C(=O)O)C1CCCCC1; NMeI = CC[C@H](C)[C@H](NC)C(=O)O; NMeD = CN[C@@H](CC(=O)O)C(=O)O; NMeL = CN[C@@H](CC(C)C)C(=O)O; Azetidin(1-yl) = C1CN(*)C1; NMeA = CN[C@@H](C)C(=O)O; Pyrrolidide = C1CCN(*)C1; Ac5c = NC1(C(=O)O)CCCC1; Aze = O=C(O)[C@@H]1CCN1; Sar = CNCC(=O)O

Assays:
[1] = test system: Human pancreatic cancer cell line AsPC-1 (G12D mutation Kras); test: AsPC-1 cell growth inhibition (AsPC-1 CGI); format: cell-based; conditions: read-out: AsPC-1 cell growth inhibition, 50% growth inhibitory concentration (IC50 value); 96 hours, CellTiter-Glo, values classified in ranges
[2] = target: protein-protein interaction between Kras and SOS1 (biotin-tagged human Kras loaded with GDP, His-tagged human SOS1) (Homo sapiens (Human), UniProt P01116, G12D); test: Protein-protein interaction inhibition between Kras and SOS1 (KrasG12D-SOS PPI) using AlphaScreen; format: biochemical; conditions: AlphaScreen; biotin-tagged human Kras loaded with GDP, His-tagged human SOS1; read-out: KRAS G12D-SOS PPI IC50;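 further: kras produced in E. coli, Ni-coupled donor beads and streptavidin acceptor beads, excitation 680 nm with emission detected at 520–620 nm via singlet oxygen transfer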

Row | Compound | IC50 [1] [nM] | IC50 [2] [nM]
1 | CC[C@H](C)[C@@H]1NC(=O)[C@H](CC(C)C)N(C)C(=O)C[C@@H](C(=O)N2CCC2)N(C)C(=O)[C@H]([C@@H](C)CC)N(C)C(=O)C2(CCCC2)NC(=O)[C@@H]2CCCN2C(=O)[C@H](CCc2ccc(C(F)(F)F)c(Cl)c2)NC(=O)CN(C)C(=O)[C@H](CC2CCCCC2)N(C)C(=O)[C@@H]2CCN2C(=O)[C@H](C)N(C)C1=O [Compound 150] ([NMeL]I[NMeA][Aze][NMeCha][Sar][hPhe(3-Cl-4-CF3)]P[Ac5c][NMeI][NMeD]-{Azetidin(1-yl)}; lactam N-11) | ≤ 20 | 1.3
2 | CCO[C@@H]1C[C@H]2C(=O)NC3(CCCC3)C(=O)N(C)[C@@H](C3CCCC3)C(=O)N(C)[C@H](C)CC(=O)N(C)[C@@H](CC(C)C)C(=O)N[C@@H]([C@@H](C)CC)C(=O)N(C)CC(=O)N(C)CC(=O)N(C)[C@@H](Cc3ccc(C(F)(F)F)cc3)C(=O)N(C)CC(=O)N[C@@H](CCc3cc(F)c(C(F)(F)F)c(F)c3)C(=O)N2C1 [Compound 66] (cyclo([Ac5c][NMeGly(cPent)][NMedβ3hAla][NMeL]I[Sar][Sar][NMePhe(4-CF3)][Sar][hPhe(3,5-F2-4-CF3)][Hyp](Et))) | ≤ 20 | 3.6
3 | CC[C@H](C)[C@@H]1NC(=O)[C@H](CC(C)C)N(C)C(=O)C[C@@H](C(=O)N(C)C)N(C)C(=O)[C@H](C2CCCC2)N(C)C(=O)[C@H](C(C)C)NC(=O)[C@@H]2CCCN2C(=O)[C@H](CCc2ccc(C(F)(F)F)c(Cl)c2)NC(=O)CN(C)C(=O)[C@H](CC2CCCCC2)N(C)C(=O)[C@@H]2CCN2C(=O)[C@H](C)N(C)C1=O [Compound 1010] ([NMeL]I[NMeA][Aze][NMeCha][Sar][hPhe(3-Cl-4-CF3)]PV[NMeGly(cPent)][NMeD]-NMe2; lactam N-11) | > 500 | 4.3
4 | CCO[C@@H]1C[C@H]2C(=O)NC3(CCCC3)C(=O)N(C)[C@@H]([C@@H](C)CC)C(=O)N(C)[C@H](C(=O)N3CCCC3)CC(=O)N(C)[C@@H](CC(C)C)C(=O)N[C@@H]([C@@H](C)CC)C(=O)N(C)[C@@H](C)C(=O)N3CC[C@H]3C(=O)N(C)[C@@H](Cc3ccc(C(F)(F)F)cc3)C(=O)N(C)CC(=O)N[C@@H](CCc3cc(F)c(C(F)(F)F)c(F)c3)C(=O)N2C1 [Compound 1210] ([NMeL]I[NMeA][Aze][NMePhe(4-CF3)][Sar][hPhe(3,5-F2-4-CF3)][Hyp](Et)[Ac5c][NMeI][NMeD]-Pyrrolidide; lactam N-11) | ≤ 20 | 0.74
5 | CC[C@H](C)[C@@H]1NC(=O)[C@H](CC(C)C)N(CC)C(=O)C[C@@H](C(=O)N2CCCC2)N(C)C(=O)[C@H]([C@@H](C)CC)N(C)C(=O)C2(CCCC2)NC(=O)[C@@H]2CCCN2C(=O)[C@H](CCc2ccc(C(F)(F)F)c(Cl)c2)NC(=O)CN(C)C(=O)[C@H](Cc2ccc(C(F)(F)F)cc2)N(C)C(=O)[C@@H]2CCN2C(=O)[C@H](C)N(C)C1=O [Compound 1190] ([NEtLeu]I[NMeA][Aze][NMePhe(4-CF3)][Sar][hPhe(3-Cl-4-CF3)]P[Ac5c][NMeI][NMeD]-Pyrrolidide; lactam N-11) | ≤ 20 | 0.83
6 | CCO[C@@H]1C[C@H]2C(=O)NC3(CCCC3)C(=O)N(C)[C@@H](C3CCCCC3)C(=O)N(C)[C@H](C(=O)N3C4CCC3COC4)CC(=O)N(C)[C@@H](CC(C)C)C(=O)N[C@@H]([C@@H](C)CC)C(=O)N(C)CC(=O)N(C)CC(=O)N(C)[C@@H](CC3CCCCC3)C(=O)N(C)CC(=O)N[C@@H](CCc3ccc(C(F)(F)F)c(Cl)c3)C(=O)N2C1 [Compound 1977] ([NMeL]I[Sar][Sar][NMeCha][Sar][hPhe(3-Cl-4-CF3)][Hyp](Et)[Ac5c][NMeChg][NMeD]-{3Oxa8azabicyclo(3.2.1)octane}; lactam N-11) | ≤ 20 | 0.47
